Patent publication US10899754B2, “Modulators of indoleamine 2,3-dioxygenase” (GLAXOSMITHKLINE INTELLECTUAL PROPERTY DEVELOPMENT LIMITED, priority 2016, dated 2021)

What was measured:
[1] = system: human peripheral blood mononuclear cells (PBMC); experiment: PBMC cytotoxicity assay (CellTiter-Glo); assay type: cell-based; settings: 2 days, pCC50
How it was run: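 % cytotoxicity was taken from CellTiter-Glo luminescence, using wells without cells and stimulated DMSO wells as references, and fitted by four-parameter curve to give XC50. Cells were human PBMC at 50,000 per well, activated with 100 ng/ml IFN-γ plus 50 ng/ml LPS. Incubation with 11-point, 3-fold dilution series ran for 2 days at 37 °C.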

[2] = target: indoleamine 2, 3-dioxygenase (IDO1) (Homo sapiens, UniProt P14902); experiment: IDO1 PBMC RapidFire MS assay (kynurenine detection by mass spectrometry); assay type: cell-based; design: to induce the expression of indoleamine 2, 3-dioxygenase (IDO1); host or cells: human PBMC stimulated with IFN-gamma and LPS; settings: human PBMC stimulated with IFN-γ and LPS, 2 days, pIC50, read-out: PBMC PXC50 (converted)
How it was run: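 Kynurenine output, read by RapidFire mass spectrometry as ratio to an internal standard, was measured after 2-day compound exposure (11-point, 3-fold dilutions) of human PBMCs induced with 100 ng/ml IFN-γ and 50 ng/ml LPS. Cell viability tracked alongside via ATP luminescence; XC50 from curve fitting.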

Sequence of indoleamine 2, 3-dioxygenase (IDO1) (P14902 whole entry): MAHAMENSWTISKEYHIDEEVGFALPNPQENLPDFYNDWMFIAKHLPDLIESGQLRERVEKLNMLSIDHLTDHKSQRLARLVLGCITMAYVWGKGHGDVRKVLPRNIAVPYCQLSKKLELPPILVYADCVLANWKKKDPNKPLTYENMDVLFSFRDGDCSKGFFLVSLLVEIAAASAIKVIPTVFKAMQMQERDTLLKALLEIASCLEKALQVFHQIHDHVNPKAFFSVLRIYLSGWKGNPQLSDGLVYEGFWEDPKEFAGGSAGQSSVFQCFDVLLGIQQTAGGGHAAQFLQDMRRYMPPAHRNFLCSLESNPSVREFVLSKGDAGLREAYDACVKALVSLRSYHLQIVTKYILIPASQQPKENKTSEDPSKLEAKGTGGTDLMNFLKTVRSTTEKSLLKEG

| SMILES | IC50 [2] [nM] | PBMC TOX PXC50 [1] |
| --- | --- | --- |
| CC(C)CN(c1ccc([C@H](C)CC(=O)O)cc1Nc1ccc(Cl)c(Cl)n1)C1CCOCC1 [Example 33, (R)-3-(3-((5,6-Dichloropyridin-2-yl)amino)-4-(isobutyl(tetrahydro-2H-pyran-4-yl)amino)phenyl)butanoic Acid] | 6.31 | <5 |
| CC(C)CN(c1ccc([C@H](C)CC(=O)O)cc1Nc1n[nH]c(C(F)(F)F)n1)[C@H]1CC[C@@H](Br)CC1 [Example 93, (R)-3-(4-(((cis)-4-bromocyclohexyl) (isobutyl)amino)-3-((5-(trifluoromethyl)-1H-1,2,4-triazol-3-yl)amino)phenyl)butanoic Acid] | 1.26 | <5 |
| COC(=O)c1c[nH]c(Nc2cc([C@H](C)CC(=O)O)ccc2N(CC(C)C)C2CCCCC2)n1 [Example 77, (R)-3-(4-(cyclohexyl(isobutyl)amino)-3-((4-(methoxycarbonyl)-1H-imidazol-2-yl)amino)phenyl)butanoic Acid] | 1.58 | <5 |
| CC(C)CN(CC(C)C)c1ccc([C@H](C)CC(=O)O)cc1Nc1nc(C(F)(F)F)c[nH]1 [Example 85, (R)-3-(4-(diisobutylamino)-3-((4-(trifluoromethyI)-1H-imidazol-2-yl)amino)phenyl)butanoic Acid] | 2.51 | <5 |
| CC(C)CN(c1c(F)cc([C@H](C)CC(=O)O)cc1Nc1ccc(Cl)cn1)C1CCOCC1 [Example 35, (R)-3-(3-((5-chloropyridin-2-yl)amino)-5-fluoro-4-(isobutyl(tetrahydro-2H-pyran-4-yl)amino)phenyl)butanoic Acid] | 0.501 | <5 |
| CC(C)CN(c1ccc([C@H](C)CC(=O)O)cc1Nc1ccc(C(F)(F)F)cn1)C1CCOCC1 [Example 27, (R)-3-(4-(isobutyl(tetrahydro-2H-pyran-4-yl)amino)-3-((5-(trifluoromethyl)pyridin-2-yl)amino)phenyl)butanoic Acid] | 3.98 | <5 |
| CC(C)CN(c1cc(F)c([C@H](C)CC(=O)O)cc1Nc1ccc(Cl)cn1)C1CCOCC1 [Example 36, (R)-3-(5-((5-chloropyridin-2-yl)amino)-2-fluoro-4-(isobutyl(tetrahydro-2H-pyran-4-yl)amino)phenyl)butanoic Acid] | 0.631 | <5 |
| CC(C)CN(c1ccc([C@H](C)CC(=O)O)cc1Nc1nc(C#N)c[nH]1)C1CCOCC1 [example 228, (3R)-3-{3-[(4 cyano-1H-imidazol-2-yl)amino]-4-[(2-methylpropyl)(oxan-4-yl)amino]phenyl}butanoic acid] | 15.8 | <5 |
| CO[C@H]1CC[C@H](N(CC(C)C)c2ccc([C@H](C)CC(=O)O)cc2Nc2nc(Cl)ns2)CC1 [Example 54, (R)-3-(3-((3-chloro-1,2,4-thiadiazol-5-yl)amino)-4-(isobutyl((1r,4R)-4-methoxycyclohexyl)amino)phenyl)butanoic Acid] | 2 | <5 |
| CC[C@H](CC(=O)O)c1ccc(N(CC(C)C)C2CCOCC2)c(Nc2n[nH]c(C3CC3)n2)c1 [Example 41, (R)-3-(3-((5-cyclopropyl-1H-1,2,4-triazol-3-yl)amino)-4-(isobutyl(tetrahydro-2H-pyran-4-yl)amino)phenyl)pentanoic Acid] | 7.94 | <5 |
| CO[C@H]1CC[C@H](N(CC(C)C)c2ccc([C@H](C)CC(=O)O)cc2Nc2nc(C(F)(F)F)ns2)CC1 [Example 50, (R)-3-(4-(isobutyl((1r,4R)-4-methoxycyclohexyl)amino)-3-((3-(trifluoromethyl)-1,2,4-thiadiazol-5-yl)amino)phenyl)butanoic Acid] | 1.58 | <5 |
| CC(C)CN(c1ccc([C@H](C)CC(=O)NS(=O)(=O)N(C)C)cc1Nc1nc(C(F)(F)F)ns1)C1CCOCC1 [Example 108, (R)—N—(N,N-Dimethylsulfamoyl)-3-(4-(isobutyl(tetrahydro-2H-pyran-4-yl)amino)-3-((3-(trifluoromethyl)-1,2,4-thiadiazol-5-yl)amino)phenyl)butanamide] | 2.51 | <5 |

More lines, main results first:

| IC50 [2] [nM] | SMILES | PBMC TOX PXC50 [1] |
| --- | --- | --- |
| 398 | CC(C)CN(c1ccc(C(C)CC(=O)O)cc1Nc1nnc(C(=O)NC(C)C)s1)C1CCCCC1 (stereo not shown) [example 245, 3-{4-[cyclohexyl(2-methylpropyl)amino]-3-({5-[(propan-2-yl)carbamoyl]-1,3,4-thiadiazol-2-yl}amino)phenyl}butanoic acid] | <5 |
| 20 | CC(C)CN(c1ccc(C(C)CC(=O)O)cc1Nc1nnc(C(=O)NC2CC2)s1)C1CCCCC1 (stereo not shown) [example 238, 3-{4-[cyclohexyl(2-methylpropyl)amino]-3-{[5-(cyclopropylcarbamoyl)-1,3,4-thiadiazol-2-yl]amino}phenyl}butanoic acid] | <5 |
| 501 | CC(C)CN(c1ccc(C(C)N)cc1Nc1nc(C(F)(F)F)ns1)C1CCOCC1 (stereo not shown) [example 234, 4-(1-aminoethyl)-N1-(2-methylpropyl)-N1-(oxan-4-yl)-N2-[3-(trifluoromethyl)-1,2,4-thiadiazol-5-yl]benzene-1,2-diamine] | <5 |
| 20 | CC(C)CN(c1ccc(C(C)CC(=O)O)cc1Nc1nncs1)C1CCCCC1 (stereo not shown) [example 235, 3-{4-[cyclohexyl(2-methylpropyl)amino]-3-[(1,3,4-thiadiazol-2-yl)amino]phenyl}butanoic acid] | <5 |
| 2000 | CC(C)CN(CC(C)C)c1ccc(C(C)CC(=O)O)cc1Nc1nnn(C)n1 (stereo not shown) [example 251, 3-{4-[bis(2-methylpropyl)amino]-3-[(2-methyl-2H-1,2,3,4-tetrazol-5-yl)amino]phenyl}butanoic acid] | <5 |
| 3160 | CC(C)CN(c1ccc([C@H](C)CC(=O)O)cc1Nc1nc(C(N)=O)c[nH]1)C1CCOCC1 [example 230, (3R)-3-{3-[(4-carbamoyl-1H-imidazol-2-yl)amino]-4-[(2-methylpropyl)(oxan-4-yl)amino]phenyl}butanoic acid] | <5 |
| 39.8 | Cc1nc(Nc2cc([C@H](C)CC(=O)O)ccc2N(CC(C)C)C2CCOCC2)ccc1Cl [example 260, (3R)-3-{3-[(5-chloro-6-methylpyridin-2-yl)amino]-4-[(2-methylpropyl)(oxan-4-yl)amino]phenyl}butanoic acid] | <5 |
| > 10000 | CC(C)CN(c1ccc([C@H](C)CC(=O)O)cc1Nc1nc(C(=O)NC2CC2)c[nH]1)C1CCOCC1 [example 236, (3R)-3-(3-{[4-(cyclopropylcarbamoyl)-1H-imidazol-2-yl]amino}-4-[(2-methylpropyl)(oxan-4-yl)amino]phenyl)butanoic acid] | <5 |
